Laboratory results: patent publication US4853470A, “3-(piperidinyl)- and 3-(pyrrolidinyl)-1H-indazoles” (Hoechst-Roussel Pharmaceuticals, Inc., priority 1988, dated 1989)
“And” between values parts separate entries of the source, which are not always exact repeats. Equal values may be shown once. Read-outs that look alike come from different tables or passages of the source.

Key:
[1] = system: supramaximal electroshock (extensor tonus); test: supramaximal electroshock (SES) assay, anticonvulsant activity; format: in vivo, male mouse; settings: for ED50 SES: i.p.; for ED50 SES / ED50: 206 volts rms for 300 msec; for SES, % protection (normalized percent inhibition) at indicated dose: @ 60 mg/kg i.p.; for ED50: Mus musculus, ip
Procedure: The compounds of the invention are also useful as anticonvulsants due to their anticonvulsant activity in mammals. Anticonvulsant activity is measured in the male mouse using the supramaximal electroshock (SES) assay described in Arch. Int. Pharmacodyn. 92: 97-107, 1952. In this procedure groups of animals are used. Drugs are prepared using distilled water and, if insoluble, a surfactant is added. Control animals receive vehicle. Drugs are routinely administered intraperitoneally (i.p.). The dosage volume is 10 ml/kg. A primary screen is given a 30 minute pretreat. The animal's eyes are placed across the output terminals of an A.C. shocker that delivers 206 volts rms for 300 msec. Electrode paste coats the animals eyes at the point of contact with the terminals. […] Protection is expressed as normalized percent inhibition relative to vehicle control.
A time response is carried out using six animals/group. Animals are tested at 30, 60 and 120 minutes postdrug. Additional time periods are tested if indicated by previous tests. When the peak activity time has been determined, a dose response is initiated using 10 animals/group at that time period. The ED50 and 95% confidence interval are calculated by computer probit analysis.

[2] = system: metrazol lethality (pentylenetetrazol); test: metrazol lethality (MTZ), anticonvulsant activity; format: in vivo, male mice; settings: for ED50: Mus musculus, ip; for MTZ, % protected at indicated dose: @ 60 mg/kg i.p.
Procedure: Anticonvulsant activity is also measured using the metrazol lethality (MTZ). In this procedure groups of male mice are utilized. Test drugs are prepared using distilled water and, if insoluble, a suitable surfactant is added. The route of administration is i.p., but all administration are in volumes proportional to 10 cc/kg.
For a time response, 25 animals (5/group) are administered drug i.p. at 15, 30, 60 and 90 minutes prior to Metrazol treatment. Control animals (2/group) receive vehicle. Metrazol (pentylenetetrazol) is prepared at a concentration of 225 mg/10 ml in distilled water. Metrazol is administered s.c. at 225 mg/kg in distilled water. Those animals alive 15 minutes after Metrazol injection are considered protected. The time period with the greatest percent protected is said to be that of peak drug activity.
A dose range is run in the same manner as a time response except that 50 animals (10/group) are tested at the peak time of drug activity. One group receives vehicle. An ED50 is calculated by means of linear regression.

[3] = system: tetrabenazine induced ptosis; test: tetrabenazine induced ptosis assay (antidepressant activity); format: in vivo, mice; settings: Mus musculus, ip; estimated 50% inhibition; read-out: ED50, inhibition of ptosis
Description: The 3-(piperidinyl)- and 3-(pyrrolidinyl)-1H-indazoles of the present invention are also useful as antidepressants by virtue of their ability to elicit an antidepressant response in mammals. […] Thus, for example,. the intraperitoneal (i.p.) dose effecting an estimated 50% inhibition of ptosis (ED50) in mice produced in this assay is as follows: […]

[4] = system: phenyl-p-quinone writhing; test: phenyl-p-quinone writhing assay (analgesia); format: in vivo, mice; settings: for ED50: Mus musculus, sc, read-out: ED50, inhibition of writhing; for inhibition of writhing at indicated dose: @ 20 mg/kg, s.c.
apomorphine climbing = apomorphine climbing mice assay (antipsychotic activity); format: in vivo, mice (CK-1 male); settings: for ED50: Mus musculus, ip, read-out: ED50, antipsychotic activity (climbing); for % decrease in climbing score at indicated dose: @ 10 mg/kg, i.p.
Procedure: Antipsychotic activity is determined in the climbing mice assay by methods similar to those described by P. Protais, et al., Psychopharmacol., 50, 1 (1976) and B. Costall, Eur. J. Pharmacol., 50, 39 (1978).
The subject CK-1 male mice (23-27 grams) are group-housed under standard laboratory conditions. The mice are individually placed in wire mesh stick cages (4"×4" by 10") and are allowed one hour for adaptation and exploration of the new environment. Then apomorphine is injected subcutaneously at 1.5 mg/kg, a dose causing climbing in all subjects for 30 minutes. Compounds to be tested for antipsychotic activity are injected intraperitoneally (i.p.) 30 minutes prior to the apomorphine challenge at a screening dose of 10 mg/kg.
For evaluation of climbing, 3 readings are taken at 10, 20, and 30 minutes after apomorphine administration according to the following scale:
4 paws on bottom (no climbing)
2 paws on the wall (rearing)
4 paws on the wall (full climb)
Mice consistently climbing before the injection of apomorphine will be discarded.
With full-developed apomorphine climbing, the animals are hanging onto the cage walls, rather motionless, over longer periods of time. By contrast, climbs due to mere motor stimulation usually only last a few seconds.
The climbing scores are individually totaled (maximal score: 6 per mouse over 3 readings) and the total score of the control group (vehicle intraperitoneally-apomorphine subcutaneously) is set to 100%. ED50 values with 95% confidence limits, calculated by a Linear Regression Analysis of some of the instant 3-(piperidinyl)-1H-indazoles and 3-(pyrrolidinyl)-1H-indazoles as well as standard antipsychotics, are presented in Table 1.

[5] = 30 minutes prior to apomorphine 1.5 mg/kg s.c.

In the case of “1-(2-Phenylethyl)-3-(1-methyl-4-piperidinyl)-1H-indazole hydrobromide [Example 14]”, the “ED50 SES” value [1] is reported as 34.9 mg/kg.
For “1-(4-Nitrophenyl)-3-(1-methyl-4-piperidinyl)-1H-indazole hydrochloride [Example 7]”, the “SES, % protection (normalized percent inhibition) at indicated dose” value [1] was 0%.
For “1-(6-Fluoro-1,2-benzisoxazole-3-propyl)-3-(1-methyl-4-piperidinyl)-1H-indazole maleate [Example 11]”, the “ED50 MTZ” value ([2]; i.p., Metrazol 225 mg/kg s.c.) was 79.6 mg/kg.
For “1-Hydroxymethyl-3-(1-methyl-4-piperidinyl)-1H-indazole [Example 10]”, the “ED50 SES” value [1] was 35.3 mg/kg.
In the case of `CN1CCC(c2nn(-c3ccccc3N)c3ccccc23)CC1.O=C(O)/C=C/C(=O)O` [1-(2-Aminophenyl)-3-(1-methyl-4-piperidinyl)-1H-indazole fumarate], the ED50 [3] is reported as 19.2 mg/kg.
For `CN1CCC(c2nn(-c3ccccc3Cl)c3ccccc23)CC1.O=C(O)/C=C/C(=O)O` [1-(2-Chlorophenyl)-3-(1-methyl-4-piperidinyl)-1H-indazole fumarate], the ED50 [3] was 5.3 mg/kg.
For `Clc1ccccc1-n1nc(C2CCNCC2)c2ccccc21.O=C(O)/C=C/C(=O)O` [1-(2-Chlorophenyl)-3-(4-piperidinyl)-1H-indazole fumarate], the ED50 [3] was 5.9 mg/kg.
`CC(=O)n1nc(C2CCN(C)CC2)c2ccccc21.Cl` [1-Acetyl-3-(1-methyl-4-piperidinyl)-1H-indazole hydrochloride] showed an ED50 [4] of 0.71 mg/kg and an ED50 (apomorphine climbing) of 5.4 mg/kg.
`CN1CCC(c2nn(C(=O)c3ccccc3)c3ccccc23)CC1.Cl` [1-Benzoyl-3-(1-methyl-4-piperidinyl)-1H-indazole hydrochloride] gave an ED50 ([4]; approximately 50% inhibition) of 0.85 mg/kg and an ED50 (apomorphine climbing; [5]) of 6.5 mg/kg.
Work on `CN1CCC(c2nn(C(=O)c3ccccc3)c3cc(F)ccc23)CC1.O=C(O)/C=C/C(=O)O` [1-Benzoyl-6-fluoro-3-(1-methyl-4-piperidinyl)-1H-indazole fumarate] yielded an ED50 ([4]; approximately 50% inhibition) of 0.17 mg/kg and an ED50 (apomorphine climbing; [5]) of 1.8 mg/kg.
For `Br.CN1CCC(c2nn(CC3CC3)c3ccccc23)CC1` [1-Cyclopropylmethyl-3-(1-methyl-4-piperidinyl)-1H-indazole hydrobromide], the ED50 ([4]; approximately 50% inhibition) was 1.1 mg/kg and the “% decrease in climbing score at indicated dose” value (“% decrease in climbing score” for short) (apomorphine climbing) was 36%.
With `Br.CCn1nc(C2CCN(C)CC2)c2ccccc21` [1-Ethyl-3-(1-methyl-4-piperidinyl)-1H-indazole hydrobromide] the ED50 [4] was 0.65 mg/kg and the “% decrease in climbing score” value (apomorphine climbing) was 41%.
`Br.CN1CCC(c2nn(Cc3ccccc3)c3ccccc23)CC1` [1-Phenylmethyl-3-(1-methyl-4-piperidinyl)-1H-indazole hydrobromide] was tested, and the “inhibition of writhing at indicated dose” value ([4]; hydrobromide) was 75% and 96%.
In the case of `CN(C)CCCn1nc(C2CCN(C)CC2)c2ccccc21.O=C(O)/C=C/C(=O)O.O=C(O)/C=C/C(=O)O` [1-[3-(Dimethylamino)propyl]-3-(1-methyl-4-piperidinyl)-1H-indazole difumarate], the “inhibition of writhing at indicated dose” value [4] is reported as 15%.
Work on `CN1CCC(c2nn(-c3ccc(C(F)(F)F)cc3)c3ccccc23)CC1.Cl` [3-(1-Methyl-4-piperidinyl)-1-[4-(trifluoromethyl)phenyl]-1H-indazole hydrochloride] yielded an ED50 ([4]; approximately 50% inhibition) of 9.8 mg/kg.
With `CN1CCC(c2nn(C(=O)OCC(Cl)(Cl)Cl)c3ccccc23)CC1.Cl` [3-(1-Methyl-4-piperidinyl)-1-trichloroethoxycarbonyl-1H-indazole hydrochloride] the “% decrease in climbing score” value (apomorphine climbing) was 46%.
`CN1CCC(c2n[nH]c3ccccc23)CC1` [3-(1-methyl-4-piperidinyl)-1H--indazole, 3-(1-Methyl-4-piperidinyl)-1H-indazole] showed an ED50 [4] of 0.26 mg/kg and an ED50 (apomorphine climbing) of 4.5 mg/kg.
`Fc1ccc(C(CCCN2CCC(c3n[nH]c4ccccc34)CC2)c2ccc(F)cc2)cc1` [3-[1-[4,4-bis(4-Fluorophenyl)butyl]-4-piperidinyl]-1H-indazole] was tested, and the “inhibition of writhing at indicated dose” value [4] was 31% and the ED50 (apomorphine climbing; [5]) was 7.4 mg/kg.
In the case of `CNC(=O)N1CCC(c2nn(-c3ccccc3F)c3ccccc23)CC1` [Compound 1], the ED50 ([2]; Metrazol 225 mg/kg s.c.) is reported as 49 mg/kg and the ED50 [1] is reported as 37 mg/kg.
With `O=C(Nc1ccccc1)N1CCC(c2nn(-c3ccccc3)c3cc(F)ccc23)CC1` [Compound 2, N-Phenyl-4-(6-fluoro-1-phenyl-1H-indazol-3-yl)piperidine-1-carboxamide] the “MTZ, % protected at indicated dose” value [2] was 20% and the “SES, % protection (normalized percent inhibition) at indicated dose” value [1] was 0%.
For `Br.NC(=O)N1CCC(c2nn(-c3ccc(C(F)(F)F)cc3)c3ccccc23)CC1` [Compound 3, 4-[1-[4-(Trifluoromethyl)phenyl]-1H-indazol-3-yl]-1-piperidine carboxamide hydrobromide], the ED50 ([2]; Metrazol 225 mg/kg s.c.) was 27.4 mg/kg and the ED50 [1] was 10.9 mg/kg.
For `CNC(=O)N1CCC(c2nn(-c3ccccc3)c3cc(F)ccc23)CC1` [Compound 4, N-Methyl-4-(6-fluoro-1-phenyl-1H-indazol-3-yl)piperidine-1-carboxamide], the “MTZ, % protected at indicated dose” value [2] was 0% and the ED50 [1] was 64.9 mg/kg.
In the case of `Fc1ccc2c(C3CCN(C(=S)Nc4ccccc4)CC3)nn(-c3ccccc3)c2c1` [Compound 5, N-Phenyl-4-(6-fluoro-1-phenyl-1H-indazol-3-yl)piperidine-1-carbothioamide], the “MTZ, % protected at indicated dose” value [2] is reported as 17% and the “SES, % protection (normalized percent inhibition) at indicated dose” value [1] is reported as 0%.
With `CNC(=O)N1CCC(c2nn(-c3ccc(C(F)(F)F)cc3)c3ccccc23)CC1` [Compound 6] the “MTZ, % protected at indicated dose” value [2] was 20% and the ED50 [1] was 44.9 mg/kg.
For `CC(=O)N1CCC(c2nn(-c3ccccc3)c3cc(Br)ccc23)CC1` [Compound 8, 1-Acetyl-4-(6-bromo-1-phenyl-1H-indazol-3-yl)piperidine], the “MTZ, % protected at indicated dose” value [2] was 0% and the “SES, % protection (normalized percent inhibition) at indicated dose” value [1] was 33%.
With `CNC(=O)N1CCC(c2nn(-c3ccc(F)cc3)c3ccccc23)CC1` [Compound 9] the ED50 ([2]; Metrazol 225 mg/kg s.c.) was 45.5 mg/kg and the ED50 [1] was 31.7 mg/kg.
In the case of `O=CN1CCC(c2nn(-c3ccc(C(F)(F)F)cc3)c3ccccc23)CC1` [Compound 12], the ED50 ([2]; Metrazol 225 mg/kg s.c.) is reported as 60.9 mg/kg and the ED50 [1] is reported as 27.2 mg/kg.
With `O=CN1CCC(c2nn(-c3ccc(F)cc3)c3ccccc23)CC1` [Compound 13] the “MTZ, % protected at indicated dose” value [2] was 40% and the ED50 [1] was 24.7 mg/kg.
Work on `NC(=O)N1CCC(c2nn(-c3ccccc3)c3cc(Cl)ccc23)CC1` [Compound 15, 4-(6-Chloro-1-phenyl-1H-indazol-3-yl)piperidine-1-carboxamide] yielded an ED50 ([2]; Metrazol 225 mg/kg s.c.) of 31.2 mg/kg and an ED50 [1] of 48.1 mg/kg.
In the case of `CN(C)C(=O)N1CCC(c2nn(-c3ccc(C(F)(F)F)cc3)c3ccccc23)CC1` [Compound 16], the “MTZ, % protected at indicated dose” value [2] is reported as 20% and the “SES, % protection (normalized percent inhibition) at indicated dose” value [1] is reported as 20%.
Molecule `O=C(CCCN1CCC(O)(c2ccc(Cl)cc2)CC1)c1ccc(F)cc1` [haloperidol, reference compound] has an ED50 (apomorphine climbing) of 0.11 mg/kg.
Molecule `CC(C)=CCN1CCC2(C)c3cc(O)ccc3CC1C2C` (stereo not shown) [pentazocine, reference compound] has an ED50 [4] of 1.3 mg/kg.
`CCC(=O)O[C@](Cc1ccccc1)(c1ccccc1)[C@H](C)CN(C)C` [propoxyphene, reference compound] gave an ED50 [4] of 3.9 mg/kg.
